According to patent publication US20250215012A1, “IKZF2 DEGRADERS AND USES THEREOF” (REGENTS OF THE UNIVERSITY OF MICHIGAN, priority 2022, published 2025):

Legend:
[1] = target: GST-tagged wild-type human CRBN protein (Homo sapiens (Human), UniProt Q96SW2); test: Cereblon Binding Assay (Cisbio Cereblon Binding Kit, TR-FRET); details: about 3 hours at room temperature
Protocol: (§1) The binding to cereblon (CRBN) is determined using the Cereblon Binding Kit (Cisbio, #64BDCRBNPEG) following the manufacturer's instruction. Briefly, serially diluted compounds are incubated with GST-tagged wild-type human CRBN protein, XL665-labelled Thalidomide and Europium Cryptate labelled GST antibody.
as §1, with “(CRBN) was” for “(CRBN) is”, “compounds were” for “compounds are”, “GST antibody at room temperature for about 3 hours.” for “GST antibody.”

IKZF2 [2] = target: T1, IKZF2 (Homo sapiens (Human), UniProt Q96SW2+Q9UKS7); test: IKZF2 HiBiT Assay (Jurkat-IKZF2-HiBiT cell line); assay type: cell-based; details: Jurkat-IKZF2-HiBiT cells, 24 hours; for DC50: read-out: HiBit assay degradation analysis DC50; for Dmax: read-out: HiBit assay degradation analysis Dmax
T1 sequence (Q9UKS7 whole entry): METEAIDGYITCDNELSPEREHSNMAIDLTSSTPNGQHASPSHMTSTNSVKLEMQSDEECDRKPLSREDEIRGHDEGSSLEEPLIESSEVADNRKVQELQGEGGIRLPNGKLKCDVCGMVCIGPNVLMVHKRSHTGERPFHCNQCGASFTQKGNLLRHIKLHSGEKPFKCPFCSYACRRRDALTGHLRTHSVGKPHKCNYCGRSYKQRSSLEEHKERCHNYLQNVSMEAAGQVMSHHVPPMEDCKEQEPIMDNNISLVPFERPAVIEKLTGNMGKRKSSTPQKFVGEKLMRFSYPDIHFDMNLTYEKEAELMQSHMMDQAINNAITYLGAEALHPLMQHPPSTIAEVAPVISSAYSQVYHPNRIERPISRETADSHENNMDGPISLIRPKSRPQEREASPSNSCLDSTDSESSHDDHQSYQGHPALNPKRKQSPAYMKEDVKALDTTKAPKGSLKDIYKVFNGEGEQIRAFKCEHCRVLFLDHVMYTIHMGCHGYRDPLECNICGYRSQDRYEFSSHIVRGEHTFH
T1 sequence (Q96SW2 whole entry): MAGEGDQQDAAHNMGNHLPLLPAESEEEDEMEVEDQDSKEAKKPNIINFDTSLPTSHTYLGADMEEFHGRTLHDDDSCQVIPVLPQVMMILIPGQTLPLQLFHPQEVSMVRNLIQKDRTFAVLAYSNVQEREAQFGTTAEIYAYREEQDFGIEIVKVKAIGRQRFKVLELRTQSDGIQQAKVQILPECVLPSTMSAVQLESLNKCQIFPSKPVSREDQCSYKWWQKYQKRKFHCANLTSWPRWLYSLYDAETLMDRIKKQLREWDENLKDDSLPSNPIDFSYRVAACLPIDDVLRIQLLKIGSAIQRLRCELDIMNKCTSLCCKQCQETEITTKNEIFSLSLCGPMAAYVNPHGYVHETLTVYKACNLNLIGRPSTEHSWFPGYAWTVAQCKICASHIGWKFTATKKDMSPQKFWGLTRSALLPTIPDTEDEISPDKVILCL
T1 sequence (Q16531 whole entry partner): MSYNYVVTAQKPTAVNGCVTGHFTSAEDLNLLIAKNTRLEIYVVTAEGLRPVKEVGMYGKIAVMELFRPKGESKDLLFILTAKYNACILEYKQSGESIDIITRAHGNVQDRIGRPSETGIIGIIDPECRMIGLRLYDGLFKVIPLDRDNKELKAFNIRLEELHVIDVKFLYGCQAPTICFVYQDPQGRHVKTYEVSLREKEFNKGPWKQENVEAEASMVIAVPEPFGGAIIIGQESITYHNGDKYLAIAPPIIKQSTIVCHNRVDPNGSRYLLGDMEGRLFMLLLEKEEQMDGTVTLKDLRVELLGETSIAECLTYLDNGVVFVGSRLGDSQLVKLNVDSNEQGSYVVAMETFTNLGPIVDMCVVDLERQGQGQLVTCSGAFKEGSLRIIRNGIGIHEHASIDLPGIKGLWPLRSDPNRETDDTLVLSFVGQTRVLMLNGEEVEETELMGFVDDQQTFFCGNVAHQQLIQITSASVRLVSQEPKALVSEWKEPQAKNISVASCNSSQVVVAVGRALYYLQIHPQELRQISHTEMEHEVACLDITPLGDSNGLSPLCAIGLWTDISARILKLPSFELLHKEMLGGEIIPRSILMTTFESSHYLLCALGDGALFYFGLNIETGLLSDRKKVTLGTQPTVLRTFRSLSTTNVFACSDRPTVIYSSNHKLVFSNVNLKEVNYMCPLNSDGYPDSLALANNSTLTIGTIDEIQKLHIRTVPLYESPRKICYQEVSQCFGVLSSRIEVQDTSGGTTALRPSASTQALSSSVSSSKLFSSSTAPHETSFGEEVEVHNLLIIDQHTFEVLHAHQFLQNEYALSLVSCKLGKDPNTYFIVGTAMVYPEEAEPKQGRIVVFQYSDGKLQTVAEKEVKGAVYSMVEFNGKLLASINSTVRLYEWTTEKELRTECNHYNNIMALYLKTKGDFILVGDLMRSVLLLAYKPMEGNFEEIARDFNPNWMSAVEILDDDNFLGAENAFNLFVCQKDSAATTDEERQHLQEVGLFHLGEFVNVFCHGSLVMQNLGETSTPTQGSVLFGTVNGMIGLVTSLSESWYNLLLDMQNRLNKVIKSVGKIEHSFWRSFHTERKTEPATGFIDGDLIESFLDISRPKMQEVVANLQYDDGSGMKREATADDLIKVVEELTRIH
Procedure, shortened: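 IKZF2 degradation was assessed as HiBiT luminescence in Jurkat-IKZF2-HiBiT cells, using lytic detection after 24 h of compound treatment at 37 °C, 5% CO2.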

[3] = target: His tagged CRBN+DDB−DLS7+CXU4 (Homo sapiens (Human), UniProt Q96SW2); test: IC50 Measurements for Binding to CRBN/DDBI (HTRF); details: Cy5-labeled Thalidomide probe, one hour incubation
Chain of His tagged CRBN+DDB−DLS7+CXU4 (Q96SW2 whole entry): as the sequence (Q96SW2 whole entry) above
Chain of His tagged CRBN+DDB−DLS7+CXU4 (Q16531 whole entry partner): as the sequence (Q16531 whole entry partner) above

IKZF2 [4] = target: T1, IKZF2; test: IKZF2 HiBit Assay (HEK293T Flp-in-HiBiT cells); assay type: cell-based; details: HEK293T Flp-in-HiBiT cells, 6 hrs; for DC50: read-out: IKZF2 HiBit degradation DC50; for Dmax: HEK-293T, read-out: IKZF2 HiBit degradation Dmax
Procedure, shortened: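 HEK293T Flp-in cells carrying CRISPR-inserted N-terminal HiBiT tag at the endogenous IKZF2 locus were treated with an 11-point, 3-fold dilution from 1 mM (stock) for 6 hrs; final DMSO 0.1%. HiBiT luminescence was detected after lysis with LgBiT/substrate reagent. DMSO-normalized curves gave 50% degradation concentration and Dmax.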

IKZF1 = IKZF1 (Homo sapiens (Human), UniProt Q13422+Q96SW2); test: IKZF1 HiBit Assay (HEK293T Flp-in-HiBiT-IKZF1 stable cell line); assay type: cell-based; details: HEK293T Flp-in-HiBiT-IKZF1 cells, 6 hrs; for DC50: read-out: IKZF1 HiBit degradation DC50; for Dmax: HEK-293T, read-out: IKZF1 HiBit degradation Dmax
Chain of IKZF1 (Q13422 whole entry): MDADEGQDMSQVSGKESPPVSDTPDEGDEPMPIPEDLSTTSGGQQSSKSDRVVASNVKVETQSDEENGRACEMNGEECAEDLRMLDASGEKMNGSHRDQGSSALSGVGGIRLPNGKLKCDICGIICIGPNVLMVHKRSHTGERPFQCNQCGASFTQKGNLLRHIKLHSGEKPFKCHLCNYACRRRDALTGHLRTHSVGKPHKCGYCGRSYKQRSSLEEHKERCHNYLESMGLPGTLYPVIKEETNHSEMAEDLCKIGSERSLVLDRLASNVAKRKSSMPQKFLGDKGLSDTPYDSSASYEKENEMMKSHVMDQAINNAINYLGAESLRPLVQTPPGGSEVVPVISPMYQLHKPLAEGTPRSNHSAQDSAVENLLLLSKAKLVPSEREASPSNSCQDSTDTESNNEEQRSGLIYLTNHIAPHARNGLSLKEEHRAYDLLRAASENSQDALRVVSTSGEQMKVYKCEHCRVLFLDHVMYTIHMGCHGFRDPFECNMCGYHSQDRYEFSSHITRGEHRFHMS
Chain of IKZF1 (Q96SW2 whole entry): as the sequence (Q96SW2 whole entry) above
Chain of IKZF1 (Q16531 whole entry partner): as the sequence (Q16531 whole entry partner) above
Procedure, shortened: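 HEK293T Flp-in cells with CRISPR-inserted N-terminal HiBiT tag treated 6 h with 11-point threefold dilutions (0.1% DMSO). Nano-Glo HiBiT lytic luminescence normalised to DMSO gave the 50%-degradation concentration; Dmax taken as the luminescence range from highest to lowest concentration.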

Chain of GST-tagged wild-type human CRBN protein (Q96SW2 whole entry): as the sequence (Q96SW2 whole entry) above

Compound	IC50 [1] [nM]	DC50 (IKZF2 [2]) [nM]	Dmax (IKZF2 [2]) [%]	IC50 [3] [nM]	IKZF2 HiBit degradation Dmax (IKZF2 [4])	DC50 (IKZF2 [4]) [nM]	IKZF1 HiBit degradation Dmax (IKZF1)	DC50 (IKZF1) [nM]	Dmax (IKZF2 [4]) [%]	Dmax (IKZF1) [%]
O=C1CCC(N2Cc3c(ccc4c3OCC43CCN(Cc4ccc5c(c4)C(=O)NC5)CC3)C2=O)C(=O)N1 (stereo not drawn) [Compound A122, 3-(6-oxo-1′-((3-oxoisoindolin-5-yl)methyl)-6,8-dihydro-2H,7H-spiro[furo[2,3-e]isoindole-3,4′-piperidin]-7-yl)piperidine-2,6-dione]	100 to 1000	50 to 200	60 to 80	–	–	–	–	–	–	–
O=C1CCC(N2Cc3c(ccc4c3OCC43CCN(Cc4ccc5cc[nH]c5c4)CC3)C2=O)C(=O)N1 (stereo not drawn) [Compound A129, 3-(1′-((1H-indol-6-yl)methyl)-6-oxo-6,8-dihydro-2H,7H-spiro[furo[2,3-e]isoindole-3,4′-piperidin]-7-yl)piperidine-2,6-dione]	10 to 100	< 50	60 to 80	–	–	–	–	–	–	–
O=C1CCC(N2Cc3c(ccc4c3OCC43CCN(Cc4ccc5c(c4)NC(=O)C5)CC3)C2=O)C(=O)N1 (stereo not drawn) [Compound A131, 3-(6-oxo-1′-((2-oxoindolin-6-yl)methyl)-6,8-dihydro-2H,7H-spiro[furo[2,3-e]isoindole-3,4′-piperidin]-7-yl)piperidine-2,6-dione]	100 to 1000	50 to 200	60 to 80	–	–	–	–	–	–	–
Cc1cc(C)cc(CN2CCC3(CC2)COc2c3ccc3c2CN(C2CCC(=O)NC2=O)C3=O)c1 (stereo not drawn) [Compound A31, 3-(1′-(3,5-dimethylbenzyl)-6-oxo-6,8-dihydro-2H,7H-spiro[furo[2,3-e]isoindole-3,4′-piperidin]-7-yl)piperidine-2,6-dione]	100 to 1000	200 to 500	60 to 80	–	–	–	–	–	–	–
O=C1CCC(N2Cc3c(ccc4c3OCC43CCN(Cc4cccc5ccccc45)CC3)C2=O)C(=O)N1 (stereo not drawn) [Compound A27, 3-(1′-(naphthalen-1-ylmethyl)-6-oxo-6,8-dihydro-2H,7H-spiro[furo[2,3-e]isoindole-3,4′-piperidin]-7-yl)piperidine-2,6-dione]	100 to 1000	< 50	> 80	–	–	–	–	–	–	–
O=C1CCC(N2Cc3c(ccc4c3OCC43CCN(Cc4cccc(-c5ccncc5)c4)CC3)C2=O)C(=O)N1 (stereo not drawn) [Compound A133, 3-(6-oxo-1′-(3-(pyridin-4-yl)benzyl)-6,8-dihydro-2H,7H-spiro[furo[2,3-e]isoindole-3,4′-piperidin]-7-yl)piperidine-2,6-dione]	100 to 1000	< 50	60 to 80	–	–	–	–	–	–	–
(3S)-3-(1′-((1H-indazol-6-yl)methyl)-3′,3′-difluoro-3-oxo-1,3,7,8-tetrahydro-2H-spiro[cyclopenta[e]isoindole-6,4′-piperidin]-2-yl)piperidine-2,6-dione [Compound B33]	–	–	–	100 to 500	B (B: 60-80%)	1 to 10	C (C: <20%)	> 1000	–	–
[2H]C([2H])([2H])n1cc(-c2cccc(CN3CCC4(CC3)COc3c4ccc4c3CN([C@H]3CCC(=O)NC3=O)C4=O)c2)cn1 [Compound B12, (S)-3-(1′-(3-(1-(methyl-d3)-1H-pyrazol-4-yl)benzyl)-6-oxo-6,8-dihydro-2H,7H-spiro[furo[2,3-e]isoindole-3,4′-piperidin]-7-yl)piperidine-2,6-dione]	–	–	–	100 to 500	–	1 to 10	–	> 1000	> 80	< 20
Cn1ncc2cc(CN3CCC4(COc5c4ccc4c5CN([C@H]5CCC(=O)NC5=O)C4=O)C(F)(F)C3)ccc21 (stereo partly drawn) [Compound B38, (3S)-3-(3′,3′-difluoro-1′-((1-methyl-1H-indazol-5-yl)methyl)-6-oxo-6,8-dihydro-2H,7H-spiro[furo[2,3-e]isoindole-3,4′-piperidin]-7-yl) piperidine-2,6-dione]	–	–	–	100 to 500	–	1 to 10	–	> 1000	60 to 80	< 20
O=C1CC[C@H](N2Cc3c4c(cc(Cl)c3C2=O)C2(CCN(Cc3ccccc3)CC2)CO4)C(=O)N1 [Compound B17, (S)-3-(1′-benzyl-5-chloro-6-oxo-6,8-dihydro-2H,7H-spiro[furo[2,3-e]isoindole-3,4′-piperidin]-7-yl)piperidine-2,6-dione]	–	–	–	500 to 1000	–	> 1000	–	> 1000	< 20	< 20
Cn1ncc2cccc(CN3CCC4(COc5c4ccc4c5CN([C@H]5CCC(=O)NC5=O)C4=O)C(F)(F)C3)c21 (stereo partly drawn) [Compound B45, (3S)-3-(3′,3′-difluoro-1′-((1-methyl-1H-indazol-7-yl)methyl)-6-oxo-6,8-dihydro-2H,7H-spiro[furo[2,3-e]isoindole-3,4′-piperidin]-7-yl)piperidine-2,6-dione]	–	–	–	100 to 500	–	1 to 10	–	10 to 100	> 80	20 to 40
O=C1CC[C@H](N2Cc3c(ccc4c3OCC43CCN(Cc4cn(-c5ccc(Cl)cc5)nc4C(F)(F)F)CC3)C2=O)C(=O)N1 [Compound B5, (S)-3-(1′-((1-(4-chlorophenyl)-3-(trifluoromethyl)-1H-pyrazol-4-yl)methyl)-6-oxo-6,8-dihydro-2H,7H-spiro[furo[2,3-e]isoindole-3,4′-piperidin]-7-yl)piperidine-2,6-dione]	–	–	–	100 to 500	–	1 to 10	–	> 1000	60 to 80	< 20
Cn1cc(-c2cccc(CN3CCC4(CC3)COc3c4cc(C#N)c4c3CN([C@H]3CCC(=O)NC3=O)C4=O)c2)cn1 [Compound B19, (S)-7-(2,6-dioxopiperidin-3-yl)-1′-(3-(1-methyl-1H-pyrazol-4-yl)benzyl)-6-oxo-7,8-dihydro-2H,6H-spiro[furo[2,3-e]isoindole-3,4′-piperidine]-5-carbonitrile]	–	–	–	1000 to 5000	–	100 to 1000	–	> 1000	40 to 60	< 20
[2H]C([2H])([2H])n1cc(-c2cccc(CN3CCC4(COc5c4ccc4c5CN([C@H]5CCC(=O)NC5=O)C4=O)C(F)(F)C3)c2)cn1 (stereo partly drawn) [Compound B49, (3S)-3-(3′,3′-difluoro-1′-(3-(1-(methyl-d3)-1H-pyrazol-4-yl)benzyl)-6-oxo-6,8-dihydro-2H,7H-spiro[furo[2,3-e]isoindole-3,4′-piperidin]-7-yl) piperidine-2,6-dione]	–	–	–	100 to 500	–	< 1	–	> 1000	> 80	< 20
[2H]C([2H])(c1ccc2cn(C)nc2c1)N1CCC2(CC1)COc1c2ccc2c1CN([C@H]1CCC(=O)NC1=O)C2=O [Compound B7, (S)-3-(1′-((2-methyl-2H-indazol-6-yl)methyl-d2)-6-oxo-6,8-dihydro-2H,7H-spiro[furo[2,3-e]isoindole-3,4′-piperidin]-7-yl)piperidine-2,6-dione]	–	–	–	100 to 500	–	1 to 10	–	> 1000	60 to 80	< 20
Cn1cc(-c2cccc(CN3CCC4(CC3)COc3c4cc(F)c4c3CN([C@H]3CCC(=O)NC3=O)C4=O)c2)cn1 [Compound B16, (S)-3-(5-fluoro-1′-(3-(1-methyl-1H-pyrazol-4-yl)benzyl)-6-oxo-6,8-dihydro-2H,7H-spiro[furo[2,3-e]isoindole-3,4′-piperidin]-7-yl)piperidine-2,6-dione]	–	–	–	100 to 500	–	1 to 10	–	> 1000	40 to 60	< 20
O=C1CC[C@H](N2Cc3c4c(cc(Cl)c3C2=O)C2(CCN(Cc3cccc5cn[nH]c35)CC2)CO4)C(=O)N1 [Compound B18, (S)-3-(1′-((1H-indazol-7-yl)methyl)-5-chloro-6-oxo-6,8-dihydro-2H,7H-spiro[furo[2,3-e]isoindole-3,4′-piperidin]-7-yl)piperidine-2,6-dione]	–	–	–	100 to 500	–	> 1000	–	> 1000	< 20	< 20
[2H]C([2H])(c1cccc(-c2cnn(C([2H])([2H])[2H])c2)c1)N1CCC2(COc3c2ccc2c3CN([C@H]3CCC(=O)NC3=O)C2=O)C(F)(F)C1 (stereo partly drawn) [Compound B48, (3S)-3-(3′,3′-difluoro-1′-((3-(1-(methyl-d3)-1H-pyrazol-4-yl)phenyl)methyl-d2)-6-oxo-6,8-dihydro-2H,7H-spiro[furo[2,3-e]isoindole-3,4′-piperidin]-7-yl)piperidine-2,6-dione]	–	–	–	100 to 500	–	< 1	–	> 1000	60 to 80	< 20
